From ChEMBL document CHEMBL3286297, “Design, synthesis and antiproliferative activity of a novel class of indole-2-carboxylate derivatives” (Eur J Med Chem, 2014)
Calls of active or inactive are those of the source. No cut-off for these calls is given here.

Assays:
Format in all cases: functional, cell-based
A549 [1] = assay: Antiproliferative against human A549 cells after 48 hrs by MTT assay; settings: A549, 48 h
HepG2 = assay: Antiproliferative against human HepG2 cells after 48 hrs by MTT assay; settings: HepG2, 48 h
MCF7 = assay: Antiproliferative against human MCF7 cells after 48 hrs by MTT assay; settings: MCF7, 48 h
A549 [2] = assay: Induction of reactive oxygen species generation in human A549 cells at 200 uM after 48 hrs by […]
A549 [3] = assay: Induction of apoptosis in human A549 cells assessed as […] cleavage after 48 hrs by Western blot analysis
A549 [4] = assay: Induction of reactive oxygen species generation in human A549 cells after 48 hrs by […]
A549 [5] = assay: Cell cycle arrest in human A549 cells assessed as accumulation at G2/M phase after 48 hrs by flow cytometric analysis
A549 [6] = assay: Cell cycle arrest in human A549 cells assessed as accumulation at G1 phase after 48 hrs by flow cytometric analysis

Structure (SMILES)	IC50 (A549 [1])	IC50 (HepG2)	IC50 (MCF7)	Activity (A549 [2])	Activity (A549 [3])	Activity (A549 [4])	Activity (A549 [5])	Activity (A549 [6])
COC(=O)c1cc2c(OC)cccc2[nH]1	> 200 µM	> 200 µM	> 200 µM	–	–	–	–	–
CCOc1ccc2[nH]c(C(=O)OC)cc2c1OCC1CCCCC1	65.2 µM	> 200 µM	> 200 µM	–	–	–	–	–
COC(=O)c1cc2c(OCC(C)C)cc(NC(C)=O)cc2[nH]1	> 200 µM	> 200 µM	> 200 µM	–	–	–	–	–
CCCCOc1cccc2[nH]c(C(=O)OC)cc12	87.1 µM	> 200 µM	> 200 µM	–	–	–	–	–
CC(=O)O[C@H]1C(=O)[C@@]2(C)[C@H]([C@H](OC(=O)c3ccccc3)[C@]3(O)C[C@H](OC(=O)[C@H](O)[C@@H](NC(=O)c4ccccc4)c4ccccc4)C(C)=C1C3(C)C)[C@]1(OC(C)=O)CO[C@@H]1C[C@@H]2O [PACLITAXEL]	1.53 µM	0.0673 µM	0.0258 µM	–	–	–	–	–
COC(=O)c1cc2c(OCc3ccc(F)cc3)cc(N)cc2[nH]1	> 200 µM	> 200 µM	> 200 µM	–	–	–	–	–
CCCCOc1c(OCC)ccc2[nH]c(C(=O)OC)cc12	102 µM	168 µM	> 200 µM	–	–	–	–	–
COC(=O)c1cc2c(OCC3CCCCC3)cccc2[nH]1	31.1 µM	> 200 µM	89.8 µM	–	–	–	–	–
COC(=O)c1cc2c(OCc3ccccc3)cc(N)cc2[nH]1	> 200 µM	> 200 µM	> 200 µM	–	–	–	–	–
COC(=O)c1cc2c(OCC(C)C)cc(N)cc2[nH]1	11.4 µM	68.9 µM	97.4 µM	–	–	–	–	–
CCCOc1c(OCC)ccc2[nH]c(C(=O)OC)cc12	> 200 µM	63.5 µM	> 200 µM	–	–	–	–	–
COC(=O)c1cc2ccc(N(C)C)cc2[nH]1	> 200 µM	> 200 µM	> 200 µM	–	–	–	–	–

The next lines start with results.

IC50 (A549 [1])	IC50 (HepG2)	IC50 (MCF7)	Structure (SMILES)	Activity (A549 [2])	Activity (A549 [3])	Activity (A549 [4])	Activity (A549 [5])	Activity (A549 [6])
51.4 µM	> 200 µM	> 200 µM	COC(=O)c1cc2c(OCC(C)C)cccc2[nH]1	–	–	–	–	–
> 200 µM	> 200 µM	> 200 µM	COC(=O)c1cc2c(OCC3CCCCC3)cc(NC(C)=O)cc2[nH]1	–	–	–	–	–
40.4 µM	> 200 µM	41.8 µM	CCCCOc1cc(OC)cc2[nH]c(C(=O)OC)cc12	–	–	–	–	–
> 200 µM	> 200 µM	> 200 µM	C=CCOc1cc(N)cc2[nH]c(C(=O)OC)cc12	–	–	–	–	–
> 200 µM	> 200 µM	> 200 µM	COC(=O)c1cc2c(O)cc(N)cc2[nH]1	–	–	–	–	–
> 200 µM	> 200 µM	> 200 µM	COC(=O)c1cc2c(OC(C)C)cccc2[nH]1	–	–	–	–	–
25.4 µM	> 200 µM	18.8 µM	CCCOc1cc(OC)cc2[nH]c(C(=O)OC)cc12	–	–	–	–	–
107 µM	> 200 µM	81.1 µM	COC(=O)c1cc2c(OCC3CCCCC3)cc(OC)cc2[nH]1	–	–	–	–	–
242 µM	13.7 µM	81.1 µM	COc1cc([C@@H]2c3cc4c(cc3[C@@H](O[C@@H]3O[C@@H]5CO[C@@H](C)O[C@H]5[C@H](O)[C@H]3O)[C@H]3COC(=O)[C@H]23)OCO4)cc(OC)c1O [ETOPOSIDE]	–	–	–	–	–
750 µM	45.7 µM	25.5 µM	O=C(O)c1cc(C(=O)O)c2c(n1)C(=O)C(=O)c1cc(C(=O)O)[nH]c1-2 [PYRROLOQUINOLINE QUINONE]	Active	–	–	–	–
3.98 µM	14.5 µM	3.78 µM	COC(=O)c1cc2c(OCC3CCCCC3)cc(N)cc2[nH]1	–	Dose-dependent effect	Dose-dependent effect	Dose-dependent effect	Dose-dependent effect
> 200 µM	> 200 µM	> 200 µM	CCCOc1cccc2[nH]c(C(=O)OC)cc12	–	–	–	–	–
> 200 µM	> 200 µM	> 200 µM	COC(=O)c1cc2ccc(N)cc2[nH]1	–	–	–	–	–
24.1 µM	3.8 µM	6.38 µM	COC(=O)c1cc2c(OC(C)C)cc(OC)cc2[nH]1	–	Dose-dependent effect	Dose-dependent effect	Dose-dependent effect	Dose-dependent effect
